Assay results from patent US20260001889A1, “COMPOSITIONS USEFUL FOR MODULATING SPLICING” (Skyhawk Therapeutics, Inc., priority 2022, published 2026).

Assays:
[1] = tested on: ATXN3 transcripts containing exon 4; experiment: ATXN3 Quantitative Splicing Assay (qPCR, E4E5 primers/probe); type: cell-based; settings: Homo sapiens, SK-N-MC cells, compounds for 24 h
How it was run: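 SK-N-MC human neuroblastoma cells treated 24 h with compound from 30 μM to 0.6 nM, 24 h after plating. Lysate cDNA was run in TaqMan qPCR, with primers/probe E4E5 detecting exon 4-containing ATXN3 transcripts and E8E9 measuring total ATXN3.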

total ATXN3 protein = experiment: ATXN3 Total Protein Assay (Mesoscale Discovery, SK-N-MC cells); type: cell-based, Human; settings: incubation for 48 hours, MSD assay
How it was run: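 Human SK-N-MC neuroblastoma cells treated with compound at 30 μM to 0.6 nM for 48 h, then lysed with protease inhibitors. Total ATXN3 quantified by MSD sandwich immunoassay (mouse capture, rabbit detect antibodies, anti-rabbit MSD-ST secondary) against recombinant ATXN3 standards.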

ATXN3-HiBiT protein = experiment: ATXN3 Total Protein Assay (Kelly-ATXN3-HiBiT luminescence); type: cell-based; settings: Kelly-ATXN3-HiBiT cells, 48 h after addition of compound
How it was run: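 Kelly cells with homozygous C-terminal HiBiT knock-in on endogenous ATXN3, 2000 per well, dosed 24 h after seeding. HiBiT lytic luminescence read 48 h after compound; sister plate read with CellTiter-Glo for viability; fold change vs DMSO.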

SMILES | IC50 [1] [µM] | IC50 (total ATXN3 protein) [µM] | EC50 (ATXN3-HiBiT protein) [µM]
C/C=C/c1c(C[C@H](C)N)oc2c(NCc3cccs3)cc(Cl)nc12 [Compound 253, 3-[(E)-1-propenyl]-2-[(S)-2-aminopropyl]-5-chloro-7-thenylamino-1-oxa-4-azaindene] | 0.501 to 5 | 0.501 to 5 | 10 to 40
C/C=C\c1c(C[C@H](C)N)oc2c(NCc3cccs3)cc(Cl)nc12 [Compound 254, 2-[(S)-2-aminopropyl]-3-[(Z)-1-propenyl]-5-chloro-7-thenylamino-1-oxa-4-azaindene] | 0.501 to 5 | 0.501 to 5 | 0.501 to 5
C[C@H](N)Cc1oc2c(NCc3cccs3)cc(Cl)nc2c1-c1cccs1 [Compound 256, 2-[(S)-2-aminopropyl]-5-chloro-7-thenylamino-3-(2-thienyl)-1-oxa-4-azaindene] | 10 to 40 | 5 to 10 | 10 to 40
C[C@H](N)Cc1oc2c(NCc3cccs3)cc(Cl)nc2c1-c1nccs1 [Compound 257, 2-[(S)-2-aminopropyl]-5-chloro-7-thenylamino-3-(1,3-thiazol-2-yl)-1-oxa-4-azaindene] | 10 to 40 | 10 to 40 | 10 to 40
C[C@H](N)Cc1oc2c(NCc3cccs3)cc(Cl)nc2c1-c1ccsc1 [Compound 260, 2-[(S)-2-aminopropyl]-5-chloro-7-thenylamino-3-(3-thienyl)-1-oxa-4-azaindene] | 10 to 40 | 0.501 to 5 | 10 to 40
C[C@H](N)Cc1oc2c(NCc3cccs3)cc(Cl)nc2c1-c1ncco1 [Compound 262, 2-[(S)-2-aminopropyl]-5-chloro-3-(1,3-oxazol-2-yl)-7-thenylamino-1-oxa-4-azaindene] | 0.101 to 0.5 | 0.101 to 0.5 | 0.101 to 0.5
C[C@H](N)Cc1oc2c(NCc3cccs3)cc(Cl)nc2c1-c1cscn1 [Compound 263, 2-[(S)-2-aminopropyl]-5-chloro-7-thenylamino-3-(1,3-thiazol-4-yl)-1-oxa-4-azaindene] | 0.501 to 5 | 0.501 to 5 | 0.501 to 5
C[C@H](N)Cc1oc2c(NCc3cccs3)c(F)c(Cl)nc2c1Br [Compound 275, 2-[(S)-2-aminopropyl]-3-bromo-5-chloro-6-fluoro-7-thenylamino-1-oxa-4-azaindene] | 0.501 to 5 | 0.501 to 5 | 0.501 to 5
C#Cc1c(C[C@H](C)N)oc2c(NCc3cccs3)c(F)c(Cl)nc12 [Compound 276, 2-[(S)-2-aminopropyl]-5-chloro-3-ethynyl-6-fluoro-7-thenylamino-1-oxa-4-azaindene] | 0.501 to 5 | 0.501 to 5 | 0.501 to 5
C[C@H](F)[C@H](N)Cc1oc2c(NCc3cccs3)c(F)c(Cl)nc2c1Br [Compound 277, 2-[(2R,3S)-2-amino-3-fluorobutyl]-3-bromo-5-chloro-6-fluoro-7-thenylamino-1-oxa-4-azaindene] | 0.501 to 5 | 0.501 to 5 | 0.501 to 5
[2H][C@](N)(COC)Cc1oc2c(NCc3cccs3)cc(Cl)nc2c1Br [Compound 285, 2-[(R)-2-amino-3-methoxy(2-^2H)propyl]-3-bromo-5-chloro-7-thenylamino-1-oxa-4-azaindene] | 0.101 to 0.5 | 1e-05 to 0.1 | 1e-05 to 0.1
C[C@H](N)Cc1oc2c(NCc3cccs3)cc(C(N)=O)nc2c1Br [Compound 288, 2-[(S)-2-aminopropyl]-3-bromo-7-thenylamino-1-oxa-4-aza-5-indenecarboxamide] | 10 to 40 | 10 to 40 | 10 to 40
CC#C[C@@H](Cc1oc2c(NCc3cccs3)cc(Cl)nc2c1Br)NC [Compound 295, 3-bromo-5-chloro-2-[(2R)-2-(methylamino)pent-3-yn-1-yl]-N-(thiophen-2-ylmethyl)furo[3,2-b]pyridin-7-amine] | 0.501 to 5 | 0.501 to 5 | 0.101 to 0.5
[2H]C([2H])(c1oc2c(NCc3cccs3)cc(Cl)nc2c1Br)[C@@H](N)COC [Compound 304, 2-[(R)-2-amino-3-methoxy(1,1- ^2H2)propyl]-3-bromo-5-chloro-7-thenylamino-1-oxa-4-azaindene] | 1e-05 to 0.1 | 1e-05 to 0.1 | 1e-05 to 0.1
C[C@H](N)Cc1oc2c(NCc3cccs3)cc(Cl)nc2c1-c1cnco1 [Compound 310] | 0.101 to 0.5 | 0.101 to 0.5 | 0.101 to 0.5
C[C@H](N)Cc1oc2c(NCc3cccs3)cc(Cl)nc2c1-c1ccco1 [Compound 311, 2-[(S)-2-aminopropyl]-5-chloro-3-(2-furyl)-7-thenylamino-1-oxa-4-azaindene] | 0.501 to 5 | 5 to 10 | 0.501 to 5

SMILES | IC50 [1] [µM] | IC50 (total ATXN3 protein) [µM] | EC50 (ATXN3-HiBiT protein) [µM]
C[C@H](F)[C@H](N)Cc1oc2c(NCc3cccs3)cc(Cl)nc2c1-c1ncco1 [Compound 312, 2-[(2R,3S)-2-amino-3-fluorobutyl]-5-chloro-3-(1,3-oxazol-2-yl)-7-thenylamino-1-oxa-4-azaindene] | 0.101 to 0.5 | 0.101 to 0.5 | 1e-05 to 0.1
C[C@H](N)Cc1oc2c(NCc3cccs3)cc(Cl)nc2c1-c1ncc[nH]1 [Compound 313, 2-[(2S)-2-aminopropyl]-5-chloro-3-(1H-imidazol-2-yl)-N-(thiophen-2-ylmethyl)furo[3,2-b]pyridin-7-amine] | 10 to 40 | 5 to 10 | 10 to 40
C[C@H](N)Cc1oc2c(NCc3cccs3)cc(Cl)nc2c1-c1nccn1C [Compound 314, 2-[(S)-2-aminopropyl]-5-chloro-3-(1-methyl-2-imidazolyl)-7-thenylamino-1-oxa-4-azaindene] | 10 to 40 | 10 to 40 | 10 to 40
C[C@H](N)Cc1oc2c(NCc3cccs3)cc(Cl)nc2c1-c1ccnn1C [Compound 316, 2-[(S)-2-aminopropyl]-5-chloro-3-(1-methyl-5-pyrazolyl)-7-thenylamino-1-oxa-4-azaindene] | 10 to 40 | 10 to 40 | 10 to 40
C[C@H](N)Cc1oc2c(NCc3cccs3)cc(Cl)nc2c1-c1ccn(C)n1 [Compound 317, 2-[(S)-2-aminopropyl]-5-chloro-3-(1-methyl-3-pyrazolyl)-7-thenylamino-1-oxa-4-azaindene] | 10 to 40 | 10 to 40 | 0.501 to 5
C[C@H](N)Cc1oc2c(NCc3cccs3)cc(Cl)nc2c1-c1ccn[nH]1 [Compound 319, 2-[(S)-2-aminopropyl]-5-chloro-3-(5-pyrazolyl)-7-thenylamino-1-oxa-4-azaindene] | 0.501 to 5 | 0.501 to 5 | 0.501 to 5
Cc1coc(-c2c(C[C@H](C)N)oc3c(NCc4cccs4)cc(Cl)nc23)n1 [Compound 321, 2-[(S)-2-aminopropyl]-5-chloro-3-(4-methyl-1,3-oxazol-2-yl)-7-thenylamino-1-oxa-4-azaindene] | 0.501 to 5 | 0.501 to 5 | 0.501 to 5
Cc1cnc(-c2c(C[C@H](C)N)oc3c(NCc4cccs4)cc(Cl)nc23)o1 [Compound 322, 2-[(S)-2-aminopropyl]-5-chloro-3-(5-methyl-1,3-oxazol-2-yl)-7-thenylamino-1-oxa-4-azaindene] | 0.501 to 5 | 0.501 to 5 | 0.501 to 5
C[C@H](N)Cc1oc2c(NCc3cccs3)cc(Cl)nc2c1-c1ccoc1 [Compound 328, 2-[(S)-2-aminopropyl]-5-chloro-3-(3-furyl)-7-thenylamino-1-oxa-4-azaindene] | 10 to 40 | 10 to 40 | 10 to 40
C[C@H](F)[C@H](N)Cc1oc2c(NCc3cccs3)cc(Cl)nc2c1-c1ccco1 [Compound 331, 2-[(2R,3S)-2-amino-3-fluorobutyl]-5-chloro-3-(2-furyl)-7-thenylamino-1-oxa-4-azaindene] | 0.501 to 5 | 0.501 to 5 | 0.501 to 5
C[C@H](F)[C@H](N)Cc1oc2c(NCc3cccs3)cc(Cl)nc2c1-c1ccoc1 [Compound 332, 2-[(2R,3S)-2-amino-3-fluorobutyl]-5-chloro-3-(3-furyl)-7-thenylamino-1-oxa-4-azaindene] | 0.501 to 5 | 0.501 to 5 | 0.501 to 5
C[C@H](F)[C@H](N)Cc1oc2c(NCc3cccs3)cc(Cl)nc2c1-c1ccn(C)n1 [Compound 333, 2-[(2R,3S)-2-amino-3-fluorobutyl]-5-chloro-3-(1-methyl-3-pyrazolyl)-7-thenylamino-1-oxa-4-azaindene] | 0.501 to 5 | 0.501 to 5 | 5 to 10
C[C@H](F)[C@H](N)Cc1oc2c(NCc3cccs3)cc(Cl)nc2c1-c1ccnn1C [Compound 334, 2-[(2R,3S)-2-amino-3-fluorobutyl]-5-chloro-3-(1-methyl-5-pyrazolyl)-7-thenylamino-1-oxa-4-azaindene] | 10 to 40 | 10 to 40 | 10 to 40
C[C@H](N)Cc1oc2c(NCc3ccc(F)cc3)cc(Cl)nc2c1Br [Compound 338, 2-[(S)-2-aminopropyl]-3-bromo-5-chloro-7-{[(p-fluorophenyl)methyl]amino}-1-oxa-4-azaindene] | 0.501 to 5 | 0.501 to 5 | 0.501 to 5
C[C@H](N)Cc1oc2c(NCc3ccccc3F)cc(Cl)nc2c1Br [Compound 340, 2-[(S)-2-aminopropyl]-3-bromo-5-chloro-7-{[(o-fluorophenyl)methyl]amino}-1-oxa-4-azaindene] | 0.501 to 5 | 0.501 to 5 | 0.501 to 5
